Reference: EP2975030B1, “DIHYDROPYRIDAZINE-3,5-DIONE DERIVATIVE” (Chugai Seiyaku Kabushiki Kaisha, priority 2013, dated 2014)

system: rat small-intestinal brush border membrane vesicles; test: Inhibitory effect on 33PO4 uptake into rat small-intestinal brush border membrane vesicles (rapid filtration method); format: biochemical, Wistar female rat; conditions: 1 µM test compound; 33PO4 uptake into rat small-intestinal BBMVs, 60 seconds
In short: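 Uptake was terminated by ice-cold 110 mM NaCl, 1 mM KH2PO4, 10 mM HEPES (pH 7.5) buffer and immediate suction filtration, then washing. Using rat small-intestinal BBMVs, retained 33PO4 was quantified by liquid scintillation counting as transport activity.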

Structure (SMILES)	Rate of uptake inhibition (%) (1 µM)
CN1N(Cc2ccc(OCCN3C4CCC3COC4)c(F)c2F)C(=O)C(C(=O)Nc2ccc(C(F)(F)F)cc2-c2cc(C(F)(F)F)ncn2)=C(O)C12CCCC2 [Example 367]	43
CN1N(Cc2ccc(OCCCCOC[C@H](O)CO)c(F)c2F)C(=O)C(C(=O)Nc2ccc(C(F)(F)F)cc2-c2cc(C(F)(F)F)ncn2)=C(O)C12CCCC2 [Example 393]	45
CN1N(Cc2ccc(OCCCOC[C@H](O)CO)c(F)c2F)C(=O)C(C(=O)Nc2ccc(C(F)(F)F)cc2-c2ccc(C(F)(F)F)nc2)=C(O)C12CCCC2 [Example 386]	36
CN(CCOc1ccc(CN2C(=O)C(C(=O)Nc3ccc(C(F)(F)F)cc3-c3cc(C(F)(F)F)ncn3)=C(O)C3(CCCC3)N2C)c(F)c1F)C1CCOCC1 [Example 365]	34
Cc1cccc(CN2C(=O)C(C(=O)Nc3ccc(C(F)(F)F)cc3-c3cc(C(F)(F)F)ncn3)=C(O)[C@@]3(C)CCCN23)c1F [Example 215]	86
C[C@]12CCCN1N(Cc1ccc(C#CCOCCCCO)c(F)c1F)C(=O)C(C(=O)Nc1ccc(C(F)(F)F)cc1-c1ccc(C(F)(F)F)nc1)=C2O [Example 128]	72
CN1N(Cc2ccc(OCCN3CCN(S(C)(=O)=O)CC3)c(F)c2F)C(=O)C(C(=O)Nc2ccc(C(F)(F)F)cc2-c2cc(C(F)(F)F)ncn2)=C(O)C12CCCC2 [Example 379]	137
CN1N(Cc2ccc(NCCN3CCOCC3)c(F)c2F)C(=O)C(C(=O)Nc2ccc(C(F)(F)F)cc2-c2cc(C(F)(F)F)ncn2)=C(O)C12CCCC2 [Example 447]	50
COc1cc(C)c(-c2cc(C(F)(F)F)ccc2NC(=O)C2=C(O)[C@@]3(C)CCCN3N(Cc3cccc(F)c3F)C2=O)cn1 [Example 80]	75
C[C@]12CCCN1N(Cc1ccc(SCCN3CCOCC3)c(F)c1F)C(=O)C(C(=O)Nc1ccc(C(F)(F)F)cc1-c1ccc(C(F)(F)F)nc1)=C2O.Cl [Example 163, (4aR)-1-[[2,3-Difluoro-4-(2-morpholin-4-ylethylsulfanyl)phenyl]methyl]-4-hydroxy-4a-methyl-2-oxo-N-(4-(trifluoromethyl)-2-[6-(trifluoromethyl)pyridin-3-yl]phenyl)-6,7-dihydro-5H-pyrrolo[1,2-b]pyridazine-3-carboxamide hydrochloride]	79
C[C@]12CCCN1N(Cc1ccc(Cl)cc1)C(=O)C(C(=O)Nc1ccc(C(F)(F)F)cc1-c1cc(C(F)(F)F)ncn1)=C2O [Example 182]	86
CN1N(Cc2ccc(OCCN3CCN(S(C)(=O)=O)CC3)c(F)c2F)C(=O)C(C(=O)Nc2ccc(C(F)(F)F)cc2-c2cc(C(F)(F)F)ncn2)=C(O)C12CCC2 [Example 363]	11
C[C@]12CCCN1N(Cc1ccccc1Cl)C(=O)C(C(=O)Nc1cc(F)c(Br)c(F)c1)=C2O [Example 219]	95
CN1N(Cc2cccc(F)c2F)C(=O)C(C(=O)Nc2cc(F)c(Br)c(F)c2)=C(O)C12CCC2 [Example 257]	71
C[C@]12CCCN1N(Cc1ccc(CCCCCCC(=O)O)c(F)c1F)C(=O)C(C(=O)Nc1ccc(Cl)cc1-c1ccc(C(F)(F)F)nc1)=C2O [Example 116, 7-[4-[[(4aR)-3-[[4-Chloro-2-[6-(trifluoromethyl)pyridin-3-yl]phenyl]carbamoyl]-4-hydroxy-4a-methyl-2-oxo-6,7-dihydro-5H-pyrrolo[1,2-b]pyridazin-1-yl]methyl]-2,3-difluorophenyl]heptanoate]	72
CN1[C@@H](C(C)(C)C)C(O)=C(C(=O)Nc2cccc(C(F)(F)F)n2)C(=O)N1Cc1cccc(F)c1F [Example 244]	71
CN1N(Cc2ccc(OCCCCCOCCCO)c(F)c2F)C(=O)C(C(=O)Nc2ccc(C(F)(F)F)cc2-c2cc(C(F)(F)F)ncn2)=C(O)C12CCCC2 [Example 400]	36
CC(C)[C@@H]1C(O)=C(C(=O)Nc2ccc(C(F)(F)F)cc2-c2cc(C(F)(F)F)ncn2)C(=O)N(Cc2cccc(F)c2F)N1C [Example 249]	50
Cc1cc(NC(=O)C2=C(O)[C@@H]3CC(C)(C)CN3N(Cc3cccc(F)c3)C2=O)c(C(F)(F)F)o1 [Example 3, (4aS)-1-[(3-Fluorophenyl)methyl]-4-hydroxy-6,6-dimethyl-N-[5-methyl-2-(trifluoromethyl)furan-3-yl]-2-oxo-5,7-dihydro-4aH-pyrrolo[1,2-b]pyridazine-3-carboxamide]	11
C[C@]12CCCN1N(Cc1ccccc1)C(=O)C(C(=O)Nc1ccc(C(F)(F)F)cc1-c1cc(C(F)(F)F)ncn1)=C2O [Example 188]	93

Structure (SMILES)	Rate of uptake inhibition (%) (1 µM)
CN1N(Cc2ccc(OCCCC(=O)O)c(F)c2F)C(=O)C(C(=O)Nc2ccc(C(F)(F)F)cc2-c2cc(C(F)(F)F)ncn2)=C(O)C12CCCC2 [Example 332, 4-[2,3-Difluoro-4-[[10-hydroxy-6-methyl-8-oxo-9-[[4-(trifluoromethyl)-2-[6-(trifluoromethyl)pyrimidin-4-yl]phenyl]carbamoyl]-6,7-diazaspiro[4.5]dec-9-en-7-yl]methyl]phenoxy]butanoate]	3
CN1CCN(CCOc2ccc(CN3C(=O)C(C(=O)Nc4ccc(C(F)(F)F)cc4-c4cc(C(F)(F)F)ncn4)=C(O)C4(CCC4)N3C)c(F)c2F)CC1=O [Example 359]	37
COC1(C)CN(CCOc2ccc(CN3C(=O)C(C(=O)Nc4ccc(C(F)(F)F)cc4-c4cc(C(F)(F)F)ncn4)=C(O)C4(CCC4)N3C)c(F)c2F)C1 [Example 356]	58
C[C@]12CCCN1N(Cc1cccc(OC(F)(F)F)c1)C(=O)C(C(=O)Nc1ccc(C(F)(F)F)cc1-c1cc(C(F)(F)F)ncn1)=C2O [Example 189]	73
C[C@]12CCCN1N(Cc1cccc(F)c1Cl)C(=O)C(C(=O)Nc1ccc(C(F)(F)F)cc1-c1ccc(C(F)(F)F)nc1)=C2O [Example 201]	77
C[C@]12CCCN1N(Cc1cccc(F)c1F)C(=O)C(C(=O)Nc1ccc(C(F)(F)F)cc1-c1cnc(Cl)c(C#N)c1)=C2O [Example 68, (4aR)-N-[2-(6-Chloro-5-cyanopyridin-3-yl)-4-(trifluoromethyl)phenyl]-1-[(2,3-difluorophenyl)methyl]-4-hydroxy-4a-methyl-2-oxo-6,7-dihydro-5H-pyrrolo[1,2-b]pyridazine-3-carboxamide]	84
COCCOc1cc(NC(=O)C2=C(O)[C@@]3(C)CCCN3N(Cc3cccc(F)c3F)C2=O)c(-c2cccc(OC)c2OC)cc1C(F)(F)F [Example 92]	81
Cc1c(Cl)ncnc1-c1cc(Cl)ccc1NC(=O)C1=C(O)[C@H](C(C)(C)C)N(C)N(Cc2ccc(OCCN3CCOCC3)c(F)c2F)C1=O [Example 275]	42
C[C@@]12CCCN1N(Cc1ccc(OCCN3CCOCC3)c(F)c1F)C(=O)C(C(=O)Nc1ccc(C(F)(F)F)cc1-c1cc(C(F)(F)F)ncn1)=C2O.Cl [Example 108]	54
CN(CCO)CCOc1ccc(CN2C(=O)C(C(=O)Nc3ccc(C(F)(F)F)cc3-c3cc(C(F)(F)F)ncn3)=C(O)C3(CCC3)N2C)c(F)c1F [Example 347]	28
CN1N(Cc2ccc(OCCCCCOC[C@H](O)CO)c(F)c2F)C(=O)C(C(=O)Nc2ccc(C(F)(F)F)cc2-c2ccc(C(F)(F)F)nc2)=C(O)C12CCC2 [Example 385]	39
CCN1[C@@H](C(C)(C)C)C(O)=C(C(=O)Nc2ccc(Cl)cc2-c2ccc(C(F)(F)F)nc2)C(=O)N1Cc1cccc(F)c1F [Example 245]	40
CN(CCOCCOc1ccc(CN2C(=O)C(C(=O)Nc3ccc(C(F)(F)F)cc3-c3cc(C(F)(F)F)ncn3)=C(O)C3(CCCC3)N2C)c(F)c1F)C[C@H](O)[C@@H](O)[C@H](O)[C@H](O)CO [Example 420, 7-[[2,3-Difluoro-4-[2-[2-[methyl-[(2S,3R,4R,5R)-2,3,4,5,6-pentahydroxyhexyl]amino]ethoxy]ethoxy]phenyl]methyl]-10-hydroxy-6-methyl-8-oxo-N-[4-(trifluoromethyl)-2-[6-(trifluoromethyl)pyrimidin-4-yl]phenyl]-6,7-diazaspiro[4.5]dec-9-ene-9-carboxamide]	19
Cc1cccc(CN2C(=O)C(C(=O)Nc3cc(F)c(Br)c(F)c3)=C(O)[C@@]3(C)CCCN23)c1F [Example 195]	76
CN1N(Cc2ccc(OCCN3CCOCC3)c(F)c2F)C(=O)C(C(=O)Nc2ccc(C(F)(F)F)cc2-c2ccc(C(F)(F)F)nc2)=C(O)C12CCCC2 [Example 287]	47
CN1N(Cc2ccc(OCCN3CCOCC3)c(F)c2F)C(=O)C(C(=O)Nc2ccc(Cl)cc2-c2cc(C(F)(F)F)ncn2)=C(O)C12CCCC2 [Example 286]	50
CN1N(Cc2cccc(F)c2F)C(=O)C(C(=O)Nc2ccc(Cl)cc2-c2ccc(C(F)(F)F)nc2)=C(O)C12CCC2 [Example 256]	79
C[C@]12CCCN1N(Cc1cccc(F)c1F)C(=O)C(C(=O)Nc1ccc(Cl)cn1)=C2O [Example 79]	71
Cc1cc(NC(=O)C2=C(O)[C@@H]3CCCCN3N(Cc3cccc(F)c3)C2=O)c(C(F)(F)F)o1 [Example 16]	38
